Experimental data as given in BindingDB's records for doi:10.1021/jm990341r (University of Wisconsin-Milwaukee, 2000).

Legend:
[1] = target: T1, Gamma-aminobutyric acid receptor subunit alpha-3/beta-3/gamma-2 (Homo sapiens, UniProt P34903+P18507+P28472); test: Binding affinity for human recombinant gamma-aminobutyric-acid (GABA) A receptor alpha-3-beta-3-gamma-2
T1 sequence (P34903 whole entry): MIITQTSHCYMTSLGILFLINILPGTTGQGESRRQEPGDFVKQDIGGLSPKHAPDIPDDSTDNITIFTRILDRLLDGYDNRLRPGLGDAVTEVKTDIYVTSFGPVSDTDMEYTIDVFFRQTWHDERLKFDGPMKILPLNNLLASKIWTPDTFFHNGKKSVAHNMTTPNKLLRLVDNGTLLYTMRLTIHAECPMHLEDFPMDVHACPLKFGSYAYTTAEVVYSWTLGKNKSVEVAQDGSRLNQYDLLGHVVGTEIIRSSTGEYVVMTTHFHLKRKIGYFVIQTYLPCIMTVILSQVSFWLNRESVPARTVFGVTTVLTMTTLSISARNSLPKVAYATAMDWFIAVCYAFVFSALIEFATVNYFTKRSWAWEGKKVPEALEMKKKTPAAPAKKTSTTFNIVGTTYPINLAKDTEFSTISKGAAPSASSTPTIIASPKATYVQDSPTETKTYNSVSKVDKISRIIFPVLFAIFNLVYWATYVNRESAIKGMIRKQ
T1 sequence (P18507 whole entry): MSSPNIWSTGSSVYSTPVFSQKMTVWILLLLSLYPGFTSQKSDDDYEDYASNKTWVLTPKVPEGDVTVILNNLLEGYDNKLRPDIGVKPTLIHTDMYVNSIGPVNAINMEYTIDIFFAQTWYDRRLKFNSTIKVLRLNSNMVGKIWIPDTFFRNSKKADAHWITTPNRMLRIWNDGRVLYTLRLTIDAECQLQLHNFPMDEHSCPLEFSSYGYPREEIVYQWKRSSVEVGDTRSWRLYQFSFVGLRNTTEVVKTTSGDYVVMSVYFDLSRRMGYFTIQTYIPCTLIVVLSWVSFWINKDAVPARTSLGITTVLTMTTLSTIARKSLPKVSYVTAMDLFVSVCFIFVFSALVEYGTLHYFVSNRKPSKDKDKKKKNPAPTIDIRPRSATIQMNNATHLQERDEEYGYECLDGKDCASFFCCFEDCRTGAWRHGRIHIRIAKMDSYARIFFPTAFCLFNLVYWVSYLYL
T1 sequence (P28472 whole entry): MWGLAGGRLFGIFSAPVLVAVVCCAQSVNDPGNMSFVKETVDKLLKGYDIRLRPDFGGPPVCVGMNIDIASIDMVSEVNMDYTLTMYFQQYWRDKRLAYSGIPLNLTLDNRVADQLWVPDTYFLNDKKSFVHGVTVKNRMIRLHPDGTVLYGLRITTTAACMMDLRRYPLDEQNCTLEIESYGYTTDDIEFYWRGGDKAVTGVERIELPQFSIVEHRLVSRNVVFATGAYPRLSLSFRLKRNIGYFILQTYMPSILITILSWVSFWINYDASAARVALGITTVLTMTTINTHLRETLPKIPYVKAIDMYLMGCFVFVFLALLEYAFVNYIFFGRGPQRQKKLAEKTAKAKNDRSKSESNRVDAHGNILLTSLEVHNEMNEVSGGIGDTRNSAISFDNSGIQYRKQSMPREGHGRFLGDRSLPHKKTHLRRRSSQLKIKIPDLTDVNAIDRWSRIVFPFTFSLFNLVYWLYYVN

[2] = target: T2, GABA-A receptor; alpha-5/beta-3/gamma-2 (Homo sapiens, UniProt P31644+P18507+P28472); test: Binding affinity for human recombinant gamma-aminobutyric-acid (GABA) A receptor alpha-5-beta-3-gamma-2
T2 sequence (P31644 whole entry): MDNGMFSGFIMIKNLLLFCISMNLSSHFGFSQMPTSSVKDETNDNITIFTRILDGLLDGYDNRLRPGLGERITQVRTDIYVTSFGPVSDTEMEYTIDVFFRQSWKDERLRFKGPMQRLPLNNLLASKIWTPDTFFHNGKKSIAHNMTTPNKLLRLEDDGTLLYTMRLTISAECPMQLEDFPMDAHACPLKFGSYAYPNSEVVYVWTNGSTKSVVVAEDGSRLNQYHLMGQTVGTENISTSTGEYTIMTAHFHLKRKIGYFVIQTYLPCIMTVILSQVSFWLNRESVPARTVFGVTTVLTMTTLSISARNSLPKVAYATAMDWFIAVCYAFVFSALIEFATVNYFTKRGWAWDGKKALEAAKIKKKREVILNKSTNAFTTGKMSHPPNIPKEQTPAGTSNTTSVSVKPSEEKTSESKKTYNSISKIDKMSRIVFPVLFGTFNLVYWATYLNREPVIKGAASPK
T2 sequence (P18507 whole entry): T1 sequence (P18507 whole entry)
T2 sequence (P28472 whole entry): T1 sequence (P28472 whole entry)

[3] = target: Gamma-aminobutyric acid receptor subunit alpha-6/beta-3/gamma-2 (Homo sapiens, UniProt Q16445+P18507+P28472); test: Binding affinity for human recombinant gamma-aminobutyric-acid (GABA) A receptor alpha-6-beta-3-gamma-2
Chain of Gamma-aminobutyric acid receptor subunit alpha-6/beta-3/gamma-2 (Q16445 whole entry, one chain of several): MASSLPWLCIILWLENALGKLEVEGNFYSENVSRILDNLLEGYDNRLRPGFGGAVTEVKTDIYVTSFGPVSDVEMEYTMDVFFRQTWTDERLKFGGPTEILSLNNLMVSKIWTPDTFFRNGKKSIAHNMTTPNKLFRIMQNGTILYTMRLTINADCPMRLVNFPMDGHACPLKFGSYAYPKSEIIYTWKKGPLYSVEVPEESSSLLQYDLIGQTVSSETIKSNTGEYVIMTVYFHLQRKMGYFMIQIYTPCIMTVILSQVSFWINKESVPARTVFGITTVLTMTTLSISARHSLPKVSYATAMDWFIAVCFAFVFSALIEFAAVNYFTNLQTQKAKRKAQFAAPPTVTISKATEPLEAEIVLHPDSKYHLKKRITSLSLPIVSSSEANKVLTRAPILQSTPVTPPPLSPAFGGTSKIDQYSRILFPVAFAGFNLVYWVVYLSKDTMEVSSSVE

[4] = target: T3, GABA-A receptor; alpha-2/beta-3/gamma-2 (Homo sapiens, UniProt P47869+P18507+P28472); test: Binding affinity to human recombinant gamma-aminobutyric-acid (GABA) A receptor alpha-2-beta-3-gamma-2
T3 sequence (P47869 whole entry): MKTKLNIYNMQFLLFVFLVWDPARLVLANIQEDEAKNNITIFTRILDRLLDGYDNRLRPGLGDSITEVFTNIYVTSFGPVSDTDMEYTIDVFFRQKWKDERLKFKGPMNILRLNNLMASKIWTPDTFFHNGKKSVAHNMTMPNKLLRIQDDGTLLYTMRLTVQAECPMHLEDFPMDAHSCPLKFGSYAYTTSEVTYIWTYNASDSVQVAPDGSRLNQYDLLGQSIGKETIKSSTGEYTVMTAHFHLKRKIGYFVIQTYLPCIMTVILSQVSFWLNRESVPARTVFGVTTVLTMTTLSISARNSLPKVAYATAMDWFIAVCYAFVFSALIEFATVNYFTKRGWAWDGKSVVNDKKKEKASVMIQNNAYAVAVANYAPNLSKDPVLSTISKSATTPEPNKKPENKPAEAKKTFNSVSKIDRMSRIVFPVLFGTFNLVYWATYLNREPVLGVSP
T3 sequence (P18507 whole entry): T1 sequence (P18507 whole entry)
T3 sequence (P28472 whole entry): T1 sequence (P28472 whole entry)

[5] = target: T4, Gamma-aminobutyric acid receptor subunit alpha-1/beta-3/gamma-2 (Homo sapiens, UniProt P14867+P18507+P28472); test: Binding affinity for human recombinant gamma-aminobutyric-acid (GABA) A receptor alpha-1-beta-3-gamma-2
T4 sequence (P14867 whole entry): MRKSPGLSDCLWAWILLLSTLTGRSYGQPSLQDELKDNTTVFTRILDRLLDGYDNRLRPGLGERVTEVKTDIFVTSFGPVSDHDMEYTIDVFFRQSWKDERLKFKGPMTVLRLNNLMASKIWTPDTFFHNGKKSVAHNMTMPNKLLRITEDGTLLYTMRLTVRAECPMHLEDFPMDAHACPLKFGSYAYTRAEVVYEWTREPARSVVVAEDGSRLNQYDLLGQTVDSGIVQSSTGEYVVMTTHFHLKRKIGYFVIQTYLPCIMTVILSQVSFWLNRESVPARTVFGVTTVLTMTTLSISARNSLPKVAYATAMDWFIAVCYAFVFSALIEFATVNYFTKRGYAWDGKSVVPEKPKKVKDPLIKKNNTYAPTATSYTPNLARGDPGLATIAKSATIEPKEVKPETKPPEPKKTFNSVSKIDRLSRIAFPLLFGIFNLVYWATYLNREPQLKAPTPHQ
T4 sequence (P18507 whole entry): T1 sequence (P18507 whole entry)
T4 sequence (P28472 whole entry): T1 sequence (P28472 whole entry)

Ki [1] [nM] | Ki [3] [nM] | Ki [4] [nM] | SMILES | Ki [2] [nM] | Ki [5] [nM]
24 | > 10000 | 12 | Clc1ccc2c(c1)[nH]c1c3c4ccccc4nc-3c[nH]c12 |  | 
 | > 10000 | 12 | COc1ccc2c(c1)[nH]c1c3c4ccccc4nc-3c[nH]c12 |  | 
6 |  |  | CCOC(=O)c1[nH]cc2nc3ccc(OCc4ccccc4)cc3c-2c1COC [6-Benzyloxy-4-methoxymethyl-9H-beta-carboline-3-carboxylic acid ethyl ester] |  | 
16 | > 10000 | 12 | c1ccc2c(c1)[nH]c1c[nH]c3c4cccnc4nc-3c12 [7,12-Dihydro-1,5,7,12-tetraaza-indeno[1,2-a]fluorene] |  | 
31 | > 10000 | 24 | c1ccc2c(c1)[nH]c1c[nH]c3c4ccncc4nc-3c12 [7,12-Dihydro-2,5,7,12-tetraaza-indeno[1,2-a]fluorene] |  | 

SMILES | Ki [1] [nM] | Ki [3] [nM] | Ki [4] [nM] | Ki [2] [nM] | Ki [5] [nM]
CCOC(=O)c1[nH]cc2nc3ccccc3c-2c1COC | 4.9 |  |  | 10 | 
COCc1c(C(=O)OC(C)C)[nH]cc2nc3ccc(OCc4ccccc4)cc3c1-2 [6-Benzyloxy-4-methoxymethyl-9H-beta-carboline-3-carboxylic acid isopropyl ester(Abecarnil)] |  | > 1000 |  |  | 12
